Calls of active or inactive are those of the source. No cut-off for these calls is given here.
Tests used:
[1] = Drug uptake in plasma membranes of HMLE-shGFP cells at 5 uM irradiated at 420 nm for 5 mins measured after 2 to 3 hrs by confocal microscopic method; format: ADME, cell membranes, Plasma membrane; settings: human
[2] = Cell cycle arrest in HMLE-shEcad cells at 1 to 5 uM after 24 to 48 hrs in absence of irradiation by propidium iodide staining-based flow cytometric method; settings: human
[3] = tested on: HMLE; assay: Cell cycle arrest in HMLE-shEcad cells assessed as delay in S/G2 phase at 5 uM irradiated at 420 nm at 4 hrs post compound addition for 5 mins measured after 24 to 48 hrs by propidium iodide staining-based flow cytometric method; format: functional; settings: Homo sapiens
[4] = tested on: SUM-159-PT; assay: Photocytotoxicity against human SUM159 cells assessed as growth inhibition irradiated at 420 nm at 4, 24, 48 hrs post compound addition for 5 mins measured after 72 hrs by MTT assay; format: functional, cell-based; settings: light or radiation study
[5] = Induction of cell damage in HMLE-shGFP cells assessed as cell swelling at 5 uM irradiated at 420 nm for 5 mins measured after 2 to 3 hrs by confocal microscopic method; format: cell-based; settings: human
[6] = tested on: MCF7; assay: Photocytotoxicity against human MCF7 cells assessed as growth inhibition irradiated at 350 nm at 4, 24, 48 hrs post compound addition for 5 mins measured after 72 hrs by MTT assay; format: functional, cell-based; settings: MCF7, light or radiation study
[7] = Cell cycle arrest in HMLE-shGFP cells assessed as delay in G1 phase at 5 uM after 24 to 48 hrs in absence of irradiation by propidium iodide staining-based flow cytometric method; settings: human
[8] = tested on: NCI-H460; assay: Photocytotoxicity against human H460 cells assessed as growth inhibition irradiated at 350 nm at 4, 24, 48 hrs post compound addition for 5 mins measured after 72 hrs by MTT assay; format: functional, cell-based; settings: NCI-H460, light or radiation study
[9] = Photocytotoxicity against HMLE-shGFP cells assessed as growth inhibition irradiated at 350 nm at 4, 24, 48 hrs post compound addition for 5 mins measured after 72 hrs by MTT assay; format: cell-based; settings: Homo sapiens, light or radiation study
[10] = Photocytotoxicity against HMLE-shEcad cells assessed as growth inhibition irradiated at 420 nm at 4, 24, 48 hrs post compound addition for 5 mins measured after 72 hrs by MTT assay; format: functional, cell-based; settings: Homo sapiens, light or radiation study
[11] = tested on: HMLE; assay: Anticlonogenic activity against HMLE-shEcad cells at 1 uM irradiated at 350 nm at 4 hrs post compound addition for 5 mins measured after 24 hrs by crystal violet staining-based assay; format: functional, cell-based; settings: Homo sapiens
[12] = tested on: HMLE; assay: Cytotoxicity against HMLE-shEcad cells at 10 uM irradiated at 420 nm at 4 hrs post compound addition for 5 mins measured after 48 hrs by propidium iodide staining-based flow cytometric method; format: functional, cell-based; settings: Homo sapiens
[13] = Drug uptake in nucleus of HMLE-shGFP cells at 5 uM irradiated at 420 nm for 5 mins measured after 2 to 3 hrs by confocal microscopic method; format: ADME, subcellular; settings: human
[14] = Induction of cell damage in HMLE-shGFP cells assessed as degradation of internal structure at 5 uM irradiated at 420 nm for 5 mins measured after 2 to 3 hrs by confocal microscopic method; format: cell-based; settings: human
[15] = tested on: MCF7; assay: Photocytotoxicity against human MCF7 cells assessed as growth inhibition irradiated at 420 nm at 4, 24, 48 hrs post compound addition for 5 mins measured after 72 hrs by MTT assay; format: functional, cell-based; settings: MCF7, light or radiation study
[16] = Dark toxicity against human H460 cells after 72 hrs by MTT assay; format: cell-based, NCI-H460
[17] = tested on: HCT-116; assay: Photocytotoxicity against human HCT116 cells assessed as growth inhibition irradiated at 420 nm at 4, 24, 48 hrs post compound addition for 5 mins measured after 72 hrs by MTT assay; format: functional, cell-based; settings: HCT-116, light or radiation study
[18] = Dark toxicity against HMLE-shEcad cells after 72 hrs by MTT assay; format: cell-based; settings: human
[19] = Drug uptake in cytoplasm of HMLE-shEcad cells at 5 uM in absence of irradiation measured after 2 to 3 hrs by confocal microscopic method; format: ADME, subcellular; settings: human
[20] = Photocytotoxicity against HMLE-shGFP cells assessed as growth inhibition irradiated at 420 nm at 4, 24, 48 hrs post compound addition for 5 mins measured after 72 hrs by MTT assay; format: cell-based; settings: Homo sapiens, light or radiation study
[21] = tested on: MCF7; assay: Cell cycle arrest in human MCF7 cells in presence of irradiation; format: functional, cell-based
[22] = Cell cycle arrest in HMLE-shGFP cells assessed as delay in S/G2 phase at 5 uM irradiated at 420 nm at 4 hrs post compound addition for 5 mins measured after 24 to 48 hrs by propidium iodide staining-based flow cytometric method; settings: human
[23] = Induction of cell damage in HMLE-shGFP cells assessed as uncoupling of cytoskeleton from plasma membrane at 5 uM irradiated at 420 nm for 5 mins measured after 2 to 3 hrs by confocal microscopic method; format: cell-based; settings: human
[24] = tested on: SUM-159-PT; assay: Cell cycle arrest in human SUM159 cells in presence of irradiation; format: functional, cell-based
[25] = Drug uptake in intracellular membranes of HMLE-shGFP cells at 5 uM irradiated at 420 nm for 5 mins measured after 2 to 3 hrs by confocal microscopic method; format: ADME, cell membranes, Intracellular membrane; settings: human
[26] = Anticlonogenic activity against HMLE-shGFP cells at 1 uM irradiated at 350 nm at 4 hrs post compound addition for 5 mins measured after 24 hrs by crystal violet staining-based assay; format: cell-based; settings: human
[27] = Dark toxicity against HMLE-shGFP cells after 72 hrs by MTT assay; format: cell-based; settings: human
[28] = Dark toxicity against human SUM159 cells after 72 hrs by MTT assay; format: cell-based, SUM-159-PT
[29] = Drug uptake in cytoplasm of HMLE-shGFP cells at 5 uM irradiated at 420 nm for 5 mins measured after 2 to 3 hrs by confocal microscopic method; format: ADME, subcellular; settings: human
[30] = Dark toxicity against human HCT116 cells after 72 hrs by MTT assay; format: cell-based, HCT-116
[31] = Cytotoxicity against HMLE-shGFP cells at 10 uM irradiated at 420 nm at 4 hrs post compound addition for 5 mins measured after 48 hrs by propidium iodide staining-based flow cytometric method; format: cell-based; settings: human
[32] = tested on: NCI-H460; assay: Photocytotoxicity against human H460 cells assessed as growth inhibition irradiated at 420 nm at 4, 24, 48 hrs post compound addition for 5 mins measured after 72 hrs by MTT assay; format: functional, cell-based; settings: NCI-H460, light or radiation study
[33] = Dark toxicity against human MCF7 cells after 72 hrs by MTT assay; format: cell-based
[34] = tested on: HCT-116; assay: Photocytotoxicity against human HCT116 cells assessed as growth inhibition irradiated at 350 nm at 4, 24, 48 hrs post compound addition for 5 mins measured after 72 hrs by MTT assay; format: functional, cell-based; settings: HCT-116, light or radiation study
[35] = Drug uptake in nucleus of HMLE-shEcad cells at 5 uM in absence of irradiation measured after 2 to 3 hrs by confocal microscopic method; format: ADME, subcellular; settings: human
[36] = Photocytotoxicity against HMLE-shEcad cells assessed as growth inhibition irradiated at 350 nm at 4, 24, 48 hrs post compound addition for 5 mins measured after 72 hrs by MTT assay; format: functional, cell-based; settings: Homo sapiens, light or radiation study

With `Oc1cc2cc3ccccc3cc2cc1C(O)(c1ccccc1)c1ccccc1` the Drug uptake [1] was “Active”, the Activity [2] was “Non-Toxic” and the Activity [3] was “Active”. For the same molecule, the IC50 [4] was 1000 nM, the Activity [5] was “Toxic” and the IC50 [6] was 4000 nM. For the same molecule, the Activity [7] was “Toxic”, the IC50 [8] was 3000 nM and the IC50 [9] was 1000 nM. The IC50 [10] was 2000 nM, the Activity [11] was “Active” and the Activity [12] was “Active”. For the same molecule, the Drug uptake [13] was “Not Active”, the Activity [14] was “Toxic” and the IC50 [15] was 2000 nM. For the same molecule, the IC50 at 72 h [16] was 19000 nM, the IC50 [17] was 2000 nM and the IC50 at 72 h [18] was 2000 nM. The Drug uptake [19] was “Active”, the IC50 [20] was 2000 nM and the Activity [21] was “inactive”. The Activity [22] was “Toxic”, the Activity [23] was “Toxic” and the Activity [24] was “inactive”. The Drug uptake [25] was “Active”, the Activity [26] was “Toxic” and the IC50 at 72 h [27] was 6000 nM. For the same molecule, the IC50 at 72 h [28] was 4000 nM, the Drug uptake [29] was “Active” and the IC50 at 72 h [30] was 21000 nM. For the same molecule, the Activity [31] was “Toxic”, the IC50 [32] was 2000 nM and the IC50 at 72 h [33] was 20000 nM. The IC50 [34] was 2000 nM, the Drug uptake [35] was “Not Active” and the IC50 [36] was 2000 nM.
